PMC3178264 (Nature chemical biology, 2009)
Blank lines part the entries; values can stand above or below the compound they belong to.

Tests used:
[1] = cited from earlier work
human UNG = human UNG (Homo sapiens, UniProt P13051); type: biochemical
[2] = cited from earlier work; remark: listed apart in the source

Chain of human UNG (P13051 whole entry): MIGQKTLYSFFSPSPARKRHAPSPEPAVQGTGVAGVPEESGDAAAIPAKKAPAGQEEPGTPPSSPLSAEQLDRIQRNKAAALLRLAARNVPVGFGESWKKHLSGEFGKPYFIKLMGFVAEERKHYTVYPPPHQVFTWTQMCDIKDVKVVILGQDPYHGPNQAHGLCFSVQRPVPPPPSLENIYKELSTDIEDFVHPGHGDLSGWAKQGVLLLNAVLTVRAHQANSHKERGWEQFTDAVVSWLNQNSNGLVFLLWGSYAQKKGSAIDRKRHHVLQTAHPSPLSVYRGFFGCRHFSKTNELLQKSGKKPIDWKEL

Compound: CNCc1ccccc1 [N-methyl-benzyl amine]
pKa [1]: 9.8

free energy change more negative than DO (human UNG; MA1 compared with DO): -2.0 kcal/mol
Compound: O=C(O)c1cccc(/C=N/OCCCNCc2cc(=O)[nH]c(=O)[nH]2)c1 [compound 6]

ΔΔG of binding on switching amine to oxime linkages (human UNG; difference free energies relative to DA (27), Figure 4): -0.6 kcal/mol
Compound: O=C(O)c1cccc(CNCCCO/N=C/c2cc(=O)[nH]c(=O)[nH]2)c1 [compound 22]

Compound: C=CC[C@@H]1/C=C(\C)C[C@H](C)C[C@H](OC)[C@H]2O[C@@](O)(C(=O)C(=O)N3CCCC[C@H]3C(=O)O[C@H](/C(C)=C/[C@@H]3CC[C@@H](O)[C@H](OC)C3)[C@H](C)[C@@H](O)CC1=O)[C@H](C)C[C@@H]2OC [FK506]
binds less tightly than expected from summing the binding free energies of its component fragments [2]: about 3 kcal/mol
